In patent publication US20070154534A1, “Use of secretin in the treatment of schizophrenia” (priority 2003, published 2007):
Marks after values point to notes of the source that are not given here. Ends that are not written are not given here.

Tests used:
[1] = tested on: patients with refractory schizophrenia; experiment: Double-blind placebo-controlled pilot study of a single intravenous dose of porcine secretin, rated with PANSS and CGI; format: in vivo, human; settings: for PANSS negative: baseline 25.5; for PANSS positive: baseline 27; for PANSS general: baseline 48.7; for PANSS total: baseline 101.2
Description: A pilot study of secretin for treatment of refractory schizophrenia was performed. Twenty-two patients were randomized to a single intravenous dose of porcine secretin or placebo. Patients were evaluated with the Positive and Negative Symptom Scale for Schizophrenia (PANSS) and the Clinical Global Impression Scale (CGI) at baseline, two days after secretin infusion and weekly for four weeks. Several patients treated with secretin experienced clinically meaningful, though transient when given a single dose, reductions in symptoms and a greater percentage of patients treated with secretin were rated as improved with the CGI.
All subjects were inpatients at Dorothea Dix Hospital in Raleigh, N.C. United States of America. The protocol was approved by the University of North Carolina at Chapel Hill Committee for the Protection of the Rights of Research Subjects. Subjects or their guardians provided written informed consent. Patients met the following inclusion criteria: (1) age 18-60; (2) DSM-IV diagnosis of schizophrenia or schizoaffective disorder; (3) severe residual symptoms despite at least three adequate trials of anti-psychotic drugs, including at least one atypical drug. Residual symptoms were defined as active delusions, hallucinations, or thought disorder, accompanied by unemployment and lack of significant social relationships outside the family of origin; (4) a baseline PANSS score of at least 70; (5) no changes in psychotropic medications for 4 weeks prior to study entry.
Subjects were assessed at baseline, two days post-infusion, and weekly for four subsequent weeks, with the Clinical Global Impression Scale (CGI) and the Positive and Negative Symptom Scale for Schizophrenia (PANSS). All raters achieved inter-rater reliability of at least 0.90 for the PANSS, and each subject had the same rater for each assessment. Qualitative impressions were also collected from clinical staff during the course of the trial.

[2] = tested on: patients with refractory schizophrenia; settings: in vivo, iv
Description: Twenty-two subjects were enrolled in the protocol and were randomly assigned to receive one dose of intravenous porcine secretin (SECRETIN-FERRING™, Ferring Laboratories, Inc., Suffern, N.Y., United States of America) or normal saline under double-blind conditions. The protocol allowed for only one infusion of secretin regardless of response. The first seven subjects received either 75 CU of secretin dissolved in 7.5 mL of normal saline (n=4), or saline alone (n=3). The remaining 15 subjects received 150 CU of secretin (n=7) or saline (n=8).

[3] = clinical units (CU); 0.2 mcg = 1 CU; cited from earlier work
[4] = Week 1, single i.v. dose 75 or 150 CU, n=11, mean
[5] = Week 1 after single i.v. dose 75 or 150 CU, n=11, mean
[6] = Week 2, single i.v. dose 75 or 150 CU, n=11, mean
[7] = Week 2 after single i.v. dose 75 or 150 CU, n=11, mean
[8] = Week 3, single i.v. dose 75 or 150 CU, n=11, mean
[9] = Week 3 after single i.v. dose 75 or 150 CU, n=11, mean
[10] = Week 4, single i.v. dose 75 or 150 CU, n=11, mean
[11] = Week 4 after single i.v. dose 75 or 150 CU, n=11, mean
[12] = within the first week after infusion, of 11 secretin-treated patients

Q: Which “Patients with a clinically meaningful response” value ([1]; 75 CU single i.v. dose) does the source give for Secretin here?
A: 1 of 4

Q: What about the “Patients with a clinically meaningful response” value ([1]; 150 CU single i.v. dose) of the same substance?
A: 2 of 7

Q: And the CGI-I ([1]; Day 2 after single i.v. dose 75 or 150 CU, n=11, mean (SD))?
A: 3.5 (0.8)*

Q: And the “Group by time interaction for the CGI-Improvement (CGI-I) scale (repeated measures ANOVA, vs placebo)” value ([1]; F=0.69)?
A: no significant group by time interaction

Q: And the “Group by time interaction for PANSS total, positive, negative and general psychopathology scores (repeated measures ANOVA, vs placebo)” value ([1]; F=1.72, 1.08, 0.6679, 0.41)?
A: no significant group by time interactions

Q: What about the PANSS negative [1, 4] of the same substance?
A: 24.3

Q: What about the PANSS positive [1, 4] of the same substance?
A: 25

Q: And the PANSS general [1, 4]?
A: 45.8

Q: What about the CGI-I [1, 5] of the same substance?
A: 3.4*

Q: What about the PANSS total [1, 5] of the same substance?
A: 95.1

Q: What about the PANSS negative [1, 6] of the same substance?
A: 24.7

Q: What about the PANSS positive [1, 6] of the same substance?
A: 26.9

Q: And the PANSS general [1, 6]?
A: 49.2

Q: What about the CGI-I [1, 7] of the same substance?
A: 3.9

Q: And the PANSS total [1, 7]?
A: 100.8

Q: And the PANSS negative [1, 8]?
A: 24.9

Q: What about the PANSS positive [1, 8] of the same substance?
A: 27

Q: And the PANSS general [1, 8]?
A: 48.2

Q: And the CGI-I [1, 9]?
A: 3.8*

Q: What about the PANSS total [1, 9] of the same substance?
A: 100.1

Q: What about the PANSS negative [1, 10] of the same substance?
A: 24.5

Q: What about the PANSS positive [1, 10] of the same substance?
A: 26.7

Q: And the PANSS general [1, 10]?
A: 48.3

Q: What about the CGI-I [1, 11] of the same substance?
A: 3.9

Q: And the PANSS total [1, 11]?
A: 99.5

Q: What about the “Time until reversion to usual behavior and level of function” value ([1]; patient of Example 1, 75 CU) of the same substance?
A: four

Q: And the “Time to onset of clinical improvement (more interactive)” value ([1]; patient of Example 1, person, disorganized schizophrenia, 75 CU)?
A: ≤ 24 h

Q: What about the “Time until return to baseline mental state” value ([1]; patient of Example 2, 150 CU) of the same substance?
A: ≤ 12 h

Q: What about the “Time to onset of clinical improvement (more alert, coherent speech)” value ([1]; patient of Example 2, person, disorganized schizophrenia, 150 CU) of the same substance?
A: six

Q: And the “Time after infusion at which improvement was seen (agreed to attend off ward activities)” value ([1]; patient of Example 3, person, paranoid schizophrenia, 150 CU)?
A: 48 h

Q: And the “CGI-I scale vs placebo, post-hoc exploratory Student's t-tests” value ([1]; two days after infusion (p=0.03), week 1 (p=0.009), week 3 (p=0.002))?
A: significant improvement

Q: And the “Patients rated as minimally improved (qualitative grouping of CGI-I scores)” value [1, 12]?
A: five

Q: What about the “Patients rated as much improved (qualitative grouping of CGI-I scores)” value [1, 12] of the same substance?
A: three

Q: What about the “Patients rated as unchanged (qualitative grouping of CGI-I scores)” value [1, 12] of the same substance?
A: two

Q: What about the “Patients rated as worse (qualitative grouping of CGI-I scores)” value [1, 12] of the same substance?
A: one

Q: What about the Allergic reactions [2] of the same substance?
A: no allergic reactions were observed

Q: What about the “Premature dropouts or serious adverse events during the trial” value [2] of the same substance?
A: no premature dropouts or serious adverse events

Q: What about the Side effects [2] of the same substance?
A: no side effects noted

Q: With “SECREFLO: Secretin commercially available under the trademark SECREFLO from RepliGen Corporation (HSDGTFTSELSRLRDSARLQRLLQGLV-NH2; ends and bridges not checked; UniProt P63298 33-59, looked up)” as the substance, how does the “Potency per milligram of peptide” value [3] read?
A: approximately 5000 CU per milligram

Q: Which “Potency per milligram of peptide” value [3] does the source give for “biologically derived porcine secretin: biologically derived porcine secretin, comparison for SECREFLO potency (HSDGTFTSELSRLRDSARLQRLLQGLV; ends and bridges not checked; UniProt P63298 33-59, looked up)” here?
A: 3000 CU per milligram
